Literature values as cited in US20220304303A1, “INSECT REPELLENT PATCHES” (The Natural Patch Company Pty Ltd, priority 2021, published 2022).

Settings: products containing between 10% and 30% DEET, used as directed

CCN(CC)C(=O)c1cccc(C)c1 [DEET, Diethyltoluamide]
safety in use on children and adults: safe to use on children, as well as adults
